Test results taken from publication PMC6100475, “Development and Validation of a HPLC-MS/MS Method for Simultaneous Determination of Twelve Bioactive Compounds in Epimedium: Application to a Pharmacokinetic Study in Rats” (Molecules : A Journal of Synthetic Chemistry and Natural …, 2018).

Experiments:
[1] = Pharmacokinetic study in rats after oral administration of Epimedium extract (HPLC-MS/MS of plasma); assay type: in vivo, Male Sprague-Dawley rats; details: rat plasma, single oral dose of Epimedium extract 10 g/kg; for AUC(0-inf) / half-life / AUC / MRT / MRT inf: male, Sprague-Dawley; for AUC(0-inf) / half-life / AUC / MRT / MRT inf / Cmax1 / Tmax1: n = 6; for AUC: read-out: AUC(0-tn); for MRT: read-out: MRT(0-tn); for MRT inf: read-out: MRT(0-∞); for Cmax2 / Tmax2: n = 6, second peak
Description: An Agilent 1200 Series HPLC system, which consisted of a binary pump (G1312A), an auto-sampler (G1367B), an online degasser unit (G1322A), along with temperature-controlled column compartment (G1316A), was used for the analysis. The twelve compounds and IS were separated on a CORTECS®C18 column (4.6 mm × 150 mm, 2.7 μm) maintained at 30 °C with the mobile phase consisted of acetonitrile (A) and 0.1% (v/v) formic acid (B). The flow rate was 0.3 mL/min. The gradient elution was as follows: 0–4 min, 20–50% A; 4–5 min, 50–60% A; 5–15 min, 60–70% A. The injection volume was 5 μL.
The tandem mass spectrometry was performed on a triple-quadrupole mass spectrometer equipped with an electrospray ionization (ESI) source (Agilent G6430A system). Nitrogen gas served as the nebulizer, drying, and collision gas. Analytes were monitored by SRM in negative mode with the electrospray ionization parameters optimized as follows: ion spray voltage of −4000 V, capillary temperature of 350 °C, auxiliary nitrogen pressure of 20 psi, drying gas flow of 9 L/min. The mass spectrometric parameters of precursor ion, product ion, collision energy (CE) and fragmentor (Frag) for analytes are listed in Table 6. Both the collision energy and the fragmentor were optimized for each compound by infusion of the standard solutions of methanol to mass spectrometry directly. The peak in sample was recognized as the target compound if the retention time, precursor ion, and product ion are same as the stand. For each analyte, the most abundant product ion was chosen for quantification. All analytes were quantified using the 6-point calibration curve. The peak areas were used for quantification following an internal algorithm. For each batch of samples processed and analyzed, the determined concentration of each compound in the QC samples, as quantified by the standard curves, was required to fall within ±15% of the known concentration for the data to be included in the final analysis.
Male Sprague-Dawley rats (220 ± 10) g were obtained from the Beijing HUAFUKANG Bioscience Co., Inc. (Beijing, China). Six male rats were acclimatized to the facilities for a week and fasted for 12 h, but allowed free access to water, before dosing. The Epimedium extract was suspended in 0.5% carboxymethyl cellulose sodium (CMC-Na) aqueous solution and given to each rat by oral administration at a single dose of 10 g/kg. Blood samples (250 μL) were collected from the fossa orbitalis of rats at 0 (before dosing), 0.03, 0.08, 0.17, 0.25, 0.5, 1, 2, 4, 6, 8, 10, 12 and 24 h after dosing. Then, the blood samples were centrifuged at 6000 g for 10 min to obtain the plasma, and the plasma was removed to another EP tube and frozen at −70 °C until analysis. The rat plasma concentration–time data of 12 analytes were computed by the software “Drug and Statistics 1.0” (DAS 1.0)

[2] = design: method as in PMID 20705408; details: previous reports ref 19; cited from earlier work

Row | AUC(0-inf) [1] | half-life [1] | AUC [1] | MRT [1] | MRT inf [1] | Cmax1 [1] | Tmax1 [1] | Cmax2 [1] | Tmax2 [1] | Structure (SMILES) | bimodal phenomenon of plasma concentration–time curve [2]
1 | 355 ± 144 ng·h/mL | 6.93 ± 2.94 h | 246 ± 133 ng·h/mL | 11.5 ± 1.99 h | 16.5 ± 3.06 h | 6.87 ± 4.58 ng/mL | 0.18 ± 0.03 h | 29.17 ± 7.70 ng/mL | 10.67 ± 1.03 h | CC(C)=CCc1c(O)cc(O)c2c(=O)c(OC3OC(C)C(O)C(O)C3O)c(-c3ccc(O)cc3)oc12 (stereo not shown) [baohuoside II] | –
2 | 1680 ± 599 ng·h/mL | 13.2 ± 4.8 h | 1450 ± 616 ng·h/mL | 10.8 ± 1.21 h | 15.7 ± 4.1 h | 65.20 ± 33.56 ng/mL | 0.38 ± 0.14 h | 170.73 ± 66.97 ng/mL | 10.00 ± 1.79 h | COc1ccc(-c2oc3c(CC=C(C)C)c(O)cc(O)c3c(=O)c2O[C@@H]2O[C@@H](C)[C@H](O)[C@@H](O)[C@H]2O)cc1 [baohuoside I] | bimodal phenomenon
3 | 886 ± 377 ng·h/mL | 0.45 ± 0.3 h | 880 ± 365 ng·h/mL | 3.85 ± 1.28 h | 3.91 ± 1.32 h | 540.28 ± 225.18 ng/mL | 0.19 ± 0.05 h | – | – | O=C(/C=C/c1ccc(O)c(O)c1)O[C@@H]1C[C@](O)(C(=O)O)C[C@@H](O)[C@H]1O [chlorogenic acid] | –
4 | 404 ± 169 ng·h/mL | 0.53 ± 0.24 h | 398 ± 171 ng·h/mL | 3.75 ± 1.91 h | 3.82 ± 2.48 h | 269.77 ± 114.07 ng/mL | 0.19 ± 0.05 h | – | – | O=C(/C=C/c1ccc(O)c(O)c1)O[C@H]1[C@H](O)C[C@](O)(C(=O)O)C[C@H]1O [cryptochlorogenic acid] | –
5 | 600 ± 219 ng·h/mL | 12.5 ± 6.85 h | 550 ± 199 ng·h/mL | 10.8 ± 2.33 h | 14.1 ± 3.98 h | 82.79 ± 7.61 ng/mL | 0.22 ± 0.04 h | 59.34 ± 26.24 ng/mL | 9.33 ± 0.94 h | COc1ccc(-c2oc3c(CC=C(C)C)c(OC4OC(CO)C(O)C(O)C4O)cc(O)c3c(=O)c2OC2OC(C)C(O)C(O)C2OC2OC(CO)C(O)C(O)C2O)cc1 (stereo not shown) [epimedin A] | bimodal phenomenon
6 | 1070 ± 212 ng·h/mL | 3.64 ± 3.68 h | 946 ± 250 ng·h/mL | 6.98 ± 1.14 h | 8.37 ± 2.39 h | 316.73 ± 59.06 ng/mL | 0.19 ± 0.07 h | 129.90 ± 77.04 ng/mL | 7.67 ± 0.75 h | COc1ccc(-c2oc3c(CC=C(C)C)c(OC4OC(CO)C(O)C(O)C4O)cc(O)c3c(=O)c2OC2OC(C)C(O)C(O)C2OC2OCC(O)C(O)C2O)cc1 (stereo not shown) [epimedin B] | bimodal phenomenon
7 | 919 ± 215 ng·h/mL | 17.9 ± 8.23 h | 850 ± 269 ng·h/mL | 9.33 ± 2.34 h | 12.5 ± 2.59 h | 135.22 ± 31.26 ng/mL | 0.22 ± 0.04 h | 103.20 ± 33.10 ng/mL | 7.67 ± 0.75 h | COc1ccc(-c2oc3c(CC=C(C)C)c(OC4OC(CO)C(O)C(O)C4O)cc(O)c3c(=O)c2OC2OC(C)C(O)C(O)C2OC2OC(C)C(O)C(O)C2O)cc1 (stereo not shown) [epimedin C] | –
8 | 325 ± 209 ng·h/mL | 0.41 ± 0.19 h | 323 ± 205 ng·h/mL | 2.71 ± 0.79 h | 2.75 ± 0.97 h | 350.28 ± 195.96 ng/mL | 0.16 ± 0.05 h | – | – | COc1ccc(-c2oc3c(CC=C(C)C)c(O[C@@H]4O[C@H](CO)[C@@H](O)[C@H](O)[C@H]4O)cc(O)c3c(=O)c2O[C@@H]2O[C@@H](C)[C@H](O)[C@@H](O)[C@H]2O)cc1 [icariin] | –
9 | 4000 ± 970 ng·h/mL | 17.8 ± 8.25 h | 3680 ± 875 ng·h/mL | 9.86 ± 0.75 h | 12.5 ± 1.72 h | 411.40 ± 110.77 ng/mL | 0.18 ± 0.03 h | 275.67 ± 89.36 ng/mL | 10.67 ± 1.63 h | COc1ccc2c(c1O)-c1c(O)c(OC)cc3c1[C@H](C2)[N+](C)(C)CC3 [magnoflorine] | –
10 | 269 ± 70.9 ng·h/mL | 0.64 ± 0.27 h | 264 ± 68.2 ng·h/mL | 3.18 ± 1.57 h | 3.25 ± 1.97 h | 205.96 ± 75.12 ng/mL | 0.19 ± 0.05 h | – | – | O=C(/C=C/c1ccc(O)c(O)c1)O[C@@H]1C[C@@](O)(C(=O)O)C[C@@H](O)[C@@H]1O [neochlorogenic acid] | –
11 | 1780 ± 352 ng·h/mL | 13.8 ± 7.09 h | 1610 ± 349 ng·h/mL | 12 ± 0.71 h | 14.3 ± 2 h | 20.35 ± 10.26 ng/mL | 0.18 ± 0.03 h | 203.50 ± 97.03 ng/mL | 11.67 ± 0.82 h | COc1ccc(-c2oc3c(CC=C(C)C)c(O)cc(O)c3c(=O)c2O[C@@H]2O[C@@H](C)[C@H](O)[C@@H](O)[C@H]2O[C@@H]2O[C@H](CO)[C@@H](O)[C@H](O)[C@H]2O)cc1 [sagittatoside A] | –
12 | 1040 ± 202 ng·h/mL | 9.38 ± 2.11 h | 854 ± 171 ng·h/mL | 11.7 ± 1.17 h | 14.9 ± 2.09 h | 19.38 ± 9.79 ng/mL | 0.20 ± 0.04 h | 112.97 ± 44.50 ng/mL | 11.00 ± 1.67 h | COc1ccc(-c2oc3c(CC=C(C)C)c(O)cc(O)c3c(=O)c2OC2OC(C)C(O)C(O)C2OC2OCC(O)C(O)C2O)cc1 (stereo not shown) [sagittatoside B] | –
